Values of other authors as cited in patent US20240358747A1, “SOME GEL FORMULATIONS THAT PROVIDE WOUND HEALING AND THE SYNTHESIS OF DYSPROSIUM ERBIUM BORATE TRIHYDRATE (Dy0.5Er0.5BO3.3H2O) COMPOUND USED IN THESE FORMULATIONS” (VERTRATECH KIMYA SANAYI VE TICARET LIMITED SIRKETI, priority 2021, published 2024).

Settings: topical application of 3% boric acid to wounds

SMILES: OB(O)O [boric acid]
- length of stay in intensive care units: reduces the length of stay in intensive care units three times
